Data reported in PubChem BioAssay AID328 (DTP/NCI, 2004).
Several values for one entry are separate records, joined by “and”; a condition that tells them apart may be missing. Equal entries are not always repeated. Toxic doses and inconclusive results are not listed. Rule for the calls: active = survival T/C of 150% or more; inactive = T/C below 125% in these data.

Test system: BDF1 mice, P388 leukemia ip, median survival T/C
Test: NCI In Vivo Anticancer Drug Screen. Data for tumor model P388 Leukemia (intraperitoneal) in B6D2F1 (BDF1) mice
Details: endpoint: median survival time, higher = longer survival
How it was run: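 Vehicle-dosed animals serve as the reference; survival of compound-dosed, tumour-implanted mice is divided by it.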

[1] = dose: 100.0 mg/kg/injection, schedule: Q01DX001 (ip), vehicle: saline with Tween-80
[2] = dose: 200.0 mg/kg/injection, schedule: Q01DX001 (ip), vehicle: saline with Tween-80
[3] = dose: 100.0 mg/kg/injection, schedule: Q04DX003 (ip), vehicle: saline with Tween-80
[4] = dose: 200.0 mg/kg/injection, schedule: Q04DX003 (ip), vehicle: saline with Tween-80
[5] = dose: 400.0 mg/kg/injection, schedule: Q04DX003 (ip), vehicle: saline with Tween-80
[6] = dose: 100.0 mg/kg/injection, schedule: Q04DX003 (ip), vehicle: Klucel (hydroxypropylcellulose) (HPC)
[7] = dose: 200.0 mg/kg/injection, schedule: Q04DX003 (ip), vehicle: Klucel (hydroxypropylcellulose) (HPC)
[8] = dose: 400.0 mg/kg/injection, schedule: Q04DX003 (ip), vehicle: Klucel (hydroxypropylcellulose) (HPC)
[9] = dose: 100.0 mg/kg/injection, schedule: Q01DX009 (ip), vehicle: saline with Tween-80
[10] = dose: 200.0 mg/kg/injection, schedule: Q01DX009 (ip), vehicle: saline with Tween-80
[11] = dose: 50.0 mg/kg/injection, schedule: Q01DX009 (ip), vehicle: saline with Tween-80
[12] = dose: 400.0 mg/kg/injection, schedule: Q01DX009 (ip), vehicle: saline with Tween-80

Measured: T/C

FC(F)(F)/C([S-])=C(/[S-])C(F)(F)F.FC(F)(F)/C([S-])=C(/[S-])C(F)(F)F.FC(F)(F)/C([S-])=C(/[S-])C(F)(F)F.FC(F)(F)/C([S-])=C(/[S-])C(F)(F)F.[Fe+3].[Fe+3]
inactive: dose: 50.0 mg/kg/injection, schedule: Q01DX001 (ip), vehicle: saline with Tween-80 100 % of control | [1] 104 % of control | [2] 104 % of control

O=c1oc(-c2ccccc2)nc2cc(Cl)ccc12
inactive: dose: 50.0 mg/kg/injection, schedule: Q04DX003 (ip), vehicle: saline with Tween-80 100 % of control and 109 % of control | [3] 100 % of control and 109 % of control | [4] 104 % of control

S=c1[nH]ccn2cnnc12
inactive: [1] 88 % of control | [2] 106 % of control | dose: 400.0 mg/kg/injection, schedule: Q01DX001 (ip), vehicle: saline with Tween-80 100 % of control

Cc1ccc(NC(=O)c2ccccc2C(=O)O)cc1C
inactive: [3] 118 % of control | [4] 100 % of control | [5] 118 % of control

CCOc1ccc2nc(N)sc2c1
inactive: dose: 25.0 mg/kg/injection, schedule: Q01DX009 (ip), vehicle: Klucel (hydroxypropylcellulose) (HPC) 118 % of control | dose: 50.0 mg/kg/injection, schedule: Q01DX009 (ip), vehicle: Klucel (hydroxypropylcellulose) (HPC) 109 % of control | dose: 100.0 mg/kg/injection, schedule: Q01DX001 (ip), vehicle: Klucel (hydroxypropylcellulose) (HPC) 86 % of control | dose: 100.0 mg/kg/injection, schedule: Q01DX009 (ip), vehicle: Klucel (hydroxypropylcellulose) (HPC) 104 % of control and 109 % of control | [6] 104 % of control | dose: 200.0 mg/kg/injection, schedule: Q01DX001 (ip), vehicle: Klucel (hydroxypropylcellulose) (HPC) 100 % of control | [7] 95 % of control | [8] 91 % of control

COC(=O)C1=C(C)NC2(C)SC1C(C)C2C(=O)OC (configuration not stated)
inactive: [9] 107 % of control | [10] 98 % of control

CCN(CC)S(=O)(=O)c1ccc(C(=O)O)cc1
inactive: [6] 100 % of control | [7] 104 % of control | [8] 100 % of control

CCN(CC)Cc1cc(Nc2ccnc3cc(Cl)ccc23)cc(-c2ccc(Cl)cc2)c1O
inactive: [11] 110 % of control | [9] 102 % of control | [10] 102 % of control

C(=N\n1cnnc1)/c1ccc(/C=N/n2cnnc2)cc1
inactive: dose: 100.0 mg/kg/injection, schedule: Q01DX001 (ip), vehicle: saline 118 % of control | dose: 200.0 mg/kg/injection, schedule: Q01DX001 (ip), vehicle: saline 104 % of control | dose: 400.0 mg/kg/injection, schedule: Q01DX001 (ip), vehicle: saline 95 % of control

COC(=O)C(CSCSC)NC(=O)/C=C/c1ccccc1C (configuration not stated)
inactive: [11] 101 % of control | [9] 98 % of control | [3] 104 % of control | [10] 101 % of control | [4] 91 % of control | [12] 114 % of control | [5] 104 % of control

C=CCNC(=O)Cn1nnc(-c2ccccc2)n1
inactive: [11] 86 % of control | [9] 101 % of control | [10] 107 % of control

CC(C)CCCBr
inactive: [9] 118 % of control | [3] 108 % of control | [10] 113 % of control | [4] 112 % of control | [12] 122 % of control | [5] 108 % of control

CCOC(=O)COc1ccc(/C=C(\C)[N+](=O)[O-])c2ccccc12
inactive: [11] 112 % of control and 123 % of control | [9] 112 % of control | [10] 122 % of control | [12] 106 % of control

COC1=CC(=O)C=C(OC)C1=O
inactive: dose: 2.0 mg/kg/injection, schedule: Q01DX010 (ip), vehicle: saline 105 % of control | dose: 4.0 mg/kg/injection, schedule: Q01DX010 (ip), vehicle: saline 100 % of control | dose: 8.0 mg/kg/injection, schedule: Q01DX010 (ip), vehicle: saline 105 % of control

Cc1cc2nc3c(=O)[nH]c(=O)nc-3n(CC(O)C(O)C(O)C(O)CO)c2cc1C (configuration not stated)
inactive: dose: 25.0 mg/kg/injection, schedule: Q01DX010 (ip), vehicle: saline 109 % of control | dose: 50.0 mg/kg/injection, schedule: Q01DX010 (ip), vehicle: saline 95 % of control and 100 % of control | dose: 100.0 mg/kg/injection, schedule: Q01DX010 (ip), vehicle: saline 90 % of control and 95 % of control and 104 % of control | dose: 200.0 mg/kg/injection, schedule: Q01DX010 (ip), vehicle: saline 100 % of control and 114 % of control | dose: 400.0 mg/kg/injection, schedule: Q01DX010 (ip), vehicle: saline 104 % of control and 110 % of control and 114 % of control

CCOc1ncc([N+](=O)[O-])c(OCC)n1
inactive: [11] 101 % of control | [9] 106 % of control | [10] 108 % of control | [12] 106 % of control

O=C1NNC2CCCCC2O1 (configuration not stated)
inactive: [11] 94 % of control | [9] 90 % of control

CCN(CC)c1ccc([N+](=O)[O-])c2no[n+]([O-])c12
inactive: dose: 35.0 mg/kg/injection, schedule: Q01DX009 (ip), vehicle: saline with Tween-80 91 % of control | dose: 70.0 mg/kg/injection, schedule: Q01DX009 (ip), vehicle: saline with Tween-80 94 % of control
